The values that follow come from ChEMBL document CHEMBL4130521, “Artificial Macrocycles as Potent p53-MDM2 Inhibitors” (ACS Med Chem Lett, 2017).

The target of the assay is E3 ubiquitin-protein ligase Mdm2 (Homo sapiens, UniProt Q00987).
E3 ubiquitin-protein ligase Mdm2, sequence (Q00987 whole entry): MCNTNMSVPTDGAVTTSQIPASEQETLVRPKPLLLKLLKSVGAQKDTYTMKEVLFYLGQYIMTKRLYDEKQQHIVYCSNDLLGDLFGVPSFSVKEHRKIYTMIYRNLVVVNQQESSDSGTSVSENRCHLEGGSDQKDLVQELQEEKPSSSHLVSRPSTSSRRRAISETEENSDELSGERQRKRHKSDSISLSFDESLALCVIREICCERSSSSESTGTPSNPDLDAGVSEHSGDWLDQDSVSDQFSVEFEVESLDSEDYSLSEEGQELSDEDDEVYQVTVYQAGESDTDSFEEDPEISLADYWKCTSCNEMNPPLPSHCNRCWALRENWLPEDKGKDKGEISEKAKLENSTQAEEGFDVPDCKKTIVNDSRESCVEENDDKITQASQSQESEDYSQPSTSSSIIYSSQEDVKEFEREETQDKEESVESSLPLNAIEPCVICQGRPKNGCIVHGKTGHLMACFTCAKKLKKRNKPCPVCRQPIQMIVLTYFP

For `CCOC(=O)c1[nH]c2cc(Cl)ccc2c1C1C(=O)NCCCCCCCCCCCCCCCCCCCC(=O)N1Cc1ccc(OCc2ccc(Cl)c(Cl)c2)cc1` (stereo not drawn), the Ki result was “Not Active”.
As to `O=C(O)c1[nH]c2cc(Cl)ccc2c1C1C(=O)NCCCCCCCCCCCCCC(=O)N1Cc1ccc(F)cc1` (stereo not drawn), the Ki result was “Not Active”.
Next, `O=C(O)c1[nH]c2cc(Cl)ccc2c1C1C(=O)NCCCCCCCCCCCCCC(=O)N1Cc1ccc(Cl)cc1` (stereo not drawn): “Not Active”.
